Results reported in ChEMBL document CHEMBL5576085, “Heterocyclic compounds as xanthine oxidase inhibitors for the management of hyperuricemia: synthetic strategies, structure-activity relationship and molecular docking studies (2018-2024)” (RSC Med Chem, 2024).
pIC50: −log10 of the molar value.

Tests used:
[1] = molecular target: T1, Xanthine dehydrogenase/oxidase (Homo sapiens, UniProt P47989); experiment: Inhibition of Xanthine oxidase (unknown origin)
[2] = molecular target: T2, Xanthine dehydrogenase/oxidase (Bos taurus, UniProt P80457); experiment: Inhibition of bovine xanthine oxidase using xanthine as substrate by measuring uric acid formation measured 30 secs interval for 2 mins by spectrophotometric analysis
T2 sequence (P80457 whole entry): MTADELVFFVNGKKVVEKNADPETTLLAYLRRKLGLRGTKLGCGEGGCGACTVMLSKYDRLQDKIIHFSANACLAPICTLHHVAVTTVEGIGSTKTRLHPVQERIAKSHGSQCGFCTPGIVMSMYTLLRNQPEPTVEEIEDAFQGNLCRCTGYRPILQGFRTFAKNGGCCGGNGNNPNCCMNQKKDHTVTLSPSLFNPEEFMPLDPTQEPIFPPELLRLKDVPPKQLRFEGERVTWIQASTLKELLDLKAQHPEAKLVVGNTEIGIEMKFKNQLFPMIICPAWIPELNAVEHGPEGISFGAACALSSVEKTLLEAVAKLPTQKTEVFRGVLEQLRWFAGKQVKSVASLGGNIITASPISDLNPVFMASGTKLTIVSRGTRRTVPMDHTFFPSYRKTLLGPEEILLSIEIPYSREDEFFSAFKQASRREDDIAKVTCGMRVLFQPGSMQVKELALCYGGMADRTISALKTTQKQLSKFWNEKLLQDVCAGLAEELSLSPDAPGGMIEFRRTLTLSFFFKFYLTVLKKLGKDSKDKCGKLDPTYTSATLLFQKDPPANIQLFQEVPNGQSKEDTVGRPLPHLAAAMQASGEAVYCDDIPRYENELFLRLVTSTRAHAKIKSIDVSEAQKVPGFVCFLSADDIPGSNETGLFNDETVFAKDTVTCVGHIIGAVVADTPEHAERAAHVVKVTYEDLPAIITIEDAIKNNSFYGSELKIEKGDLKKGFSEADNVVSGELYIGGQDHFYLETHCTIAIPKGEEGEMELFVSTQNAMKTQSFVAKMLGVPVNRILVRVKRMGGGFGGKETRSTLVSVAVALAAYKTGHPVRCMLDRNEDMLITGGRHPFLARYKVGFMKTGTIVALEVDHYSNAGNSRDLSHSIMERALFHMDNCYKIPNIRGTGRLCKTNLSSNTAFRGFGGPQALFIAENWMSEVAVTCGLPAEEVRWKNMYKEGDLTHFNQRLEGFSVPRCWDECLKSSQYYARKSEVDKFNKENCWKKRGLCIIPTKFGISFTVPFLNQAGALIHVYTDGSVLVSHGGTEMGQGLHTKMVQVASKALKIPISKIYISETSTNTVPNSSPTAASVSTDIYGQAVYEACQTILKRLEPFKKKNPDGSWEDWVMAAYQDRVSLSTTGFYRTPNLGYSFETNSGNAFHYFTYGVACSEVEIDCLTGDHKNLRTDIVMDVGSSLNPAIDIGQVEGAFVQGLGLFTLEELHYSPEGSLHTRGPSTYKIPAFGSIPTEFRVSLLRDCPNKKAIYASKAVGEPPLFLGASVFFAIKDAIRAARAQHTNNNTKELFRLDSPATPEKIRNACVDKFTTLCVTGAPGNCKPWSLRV

[3] = molecular target: T1, Xanthine dehydrogenase/oxidase; experiment: Inhibition of human Xanthine oxidase
[4] = molecular target: T2, Xanthine dehydrogenase/oxidase; experiment: Inhibition of bovine serum Xanthine oxidase; format: cell-free
[5] = molecular target: T1, Xanthine dehydrogenase/oxidase; experiment: Inhibition of Xanthine oxidase (unknown origin) using xanthine as substrate preincubated for 30 mins followed by substrate addition by spectrophotometric analysis
[6] = molecular target: T2, Xanthine dehydrogenase/oxidase; experiment: Inhibition of bovine milk xanthine oxidase using xanthine as substrate preincubated for 30 mins followed by substrate addition by spectrophotometric analysis

T1 sequence (P47989 whole entry): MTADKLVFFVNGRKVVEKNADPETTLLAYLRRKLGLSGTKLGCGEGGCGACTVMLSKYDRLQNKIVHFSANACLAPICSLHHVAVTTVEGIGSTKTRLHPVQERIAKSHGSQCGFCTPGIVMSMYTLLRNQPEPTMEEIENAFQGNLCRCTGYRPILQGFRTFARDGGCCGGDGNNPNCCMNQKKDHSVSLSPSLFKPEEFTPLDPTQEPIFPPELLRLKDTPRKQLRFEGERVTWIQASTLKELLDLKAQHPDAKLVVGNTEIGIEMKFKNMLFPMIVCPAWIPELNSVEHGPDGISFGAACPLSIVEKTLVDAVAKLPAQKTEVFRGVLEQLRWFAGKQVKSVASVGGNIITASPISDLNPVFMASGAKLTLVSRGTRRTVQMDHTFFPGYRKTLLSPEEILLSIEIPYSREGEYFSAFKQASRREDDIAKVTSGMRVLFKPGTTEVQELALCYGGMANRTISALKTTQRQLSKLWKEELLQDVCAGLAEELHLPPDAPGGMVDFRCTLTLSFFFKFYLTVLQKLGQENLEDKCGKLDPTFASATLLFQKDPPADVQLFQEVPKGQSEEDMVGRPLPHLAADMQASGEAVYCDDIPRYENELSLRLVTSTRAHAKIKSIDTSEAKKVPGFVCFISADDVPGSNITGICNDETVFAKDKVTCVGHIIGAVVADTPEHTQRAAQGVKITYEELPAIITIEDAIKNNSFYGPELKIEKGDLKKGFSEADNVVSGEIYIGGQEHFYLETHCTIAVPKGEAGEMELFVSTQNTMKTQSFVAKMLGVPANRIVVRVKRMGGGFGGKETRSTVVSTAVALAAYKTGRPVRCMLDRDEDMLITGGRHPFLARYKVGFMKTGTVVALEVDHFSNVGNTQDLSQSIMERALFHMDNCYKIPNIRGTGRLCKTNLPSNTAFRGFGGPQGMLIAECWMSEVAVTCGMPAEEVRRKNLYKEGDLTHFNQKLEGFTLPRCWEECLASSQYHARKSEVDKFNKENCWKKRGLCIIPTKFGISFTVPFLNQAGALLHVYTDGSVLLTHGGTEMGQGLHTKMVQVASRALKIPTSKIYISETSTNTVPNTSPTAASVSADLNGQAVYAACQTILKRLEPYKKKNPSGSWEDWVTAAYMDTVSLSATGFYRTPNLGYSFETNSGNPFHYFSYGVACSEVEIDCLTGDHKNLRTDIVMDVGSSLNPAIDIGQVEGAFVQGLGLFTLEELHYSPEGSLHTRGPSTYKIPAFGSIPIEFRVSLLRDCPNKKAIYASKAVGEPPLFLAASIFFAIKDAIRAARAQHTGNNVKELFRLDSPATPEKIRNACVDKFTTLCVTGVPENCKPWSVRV

Row | Compound | pIC50 [1] | other results
1 | COc1ccc(C(=O)/C=C/c2ccc(O)cc2)c(OC)c1 | 6.92 | –
2 | COc1ccc2c(c1)C(=O)C(=O)N2CCn1cc(COc2cc(=O)oc3ccccc23)nn1 | – | pIC50 [2]: 5.19
3 | O=c1[nH]c(-c2ccc(OCC3CCCCC3)c(-n3cnnn3)c2)no1 | 6.92 | –
4 | COc1cc2ccc(C(=O)NCCCCc3ccc(O)c(O)c3)cc2cc1OC | 4.88 | –
5 | OCc1nnn(Cc2cccc(Br)c2)c1CO | 6.15 | –
6 | Oc1ccc(/C=C/c2cc(O)cc3oc(-c4ccc(O)cc4)c(-c4cc(O)cc(O)c4)c23)cc1 | 4.91 | –
7 | Cc1c(/N=C/c2ccc(C(=O)Nc3nc4ccc(S(C)(=O)=O)cc4s3)cc2)c(=O)n(-c2ccccc2)n1C | 5.65 | –
8 | C=Cc1ccc(C[n+]2cn(Cc3ccc(SC)cc3)c3ccccc32)cc1 | 6.23 | –
9 | O=[N+]([O-])c1ccc(-c2cnc(-c3ccc(Br)cc3)s2)cc1 | 7.00 | –
10 | COc1ccc([C@@H]2C/C(=N\c3ccc([N+](=O)[O-])cc3Cl)c3c(O)cc(O[C@H]4O[C@@H](O[C@H]5O[C@@H](C)[C@H](O)[C@@H](O)[C@H]5O)[C@H](O)[C@@H](O)[C@@H]4O)cc3O2)cc1O | – | pIC50 [3]: 6.58
11 | C[C@@H]1O[C@@H](OC[C@H]2O[C@@H](Oc3c(-c4ccc(O)c(O)c4)oc4cc(O)cc(O)c4/c3=N\Nc3ccccc3)[C@H](O)[C@@H](O)[C@@H]2O)[C@H](O)[C@H](O)[C@H]1O | 5.31 | –
12 | N#Cc1cc[n+](Cc2ccc(-c3ccc(C[n+]4ccc(C#N)c(C(=O)O)c4)cc3)cc2)cc1C(=O)O | – | pIC50 [4]: 6.40
13 | O=C1CCC(Nc2nc3cc(C(=O)Nc4cc(O)c(O)c(O)c4)ccc3n2Cc2ccc(O)cc2)C(=O)N1 (stereo unspecified) | 4.73 | –
14 | CCn1c(O)c(C(c2ccc(Br)cc2)c2c(O)n(CC)c(=S)n(CC)c2=O)c(=O)n(CC)c1=S | 5.75 | –
15 | Nc1ccc(O)c(/N=N/c2ncc(-n3cc4c(=O)ncnc-4[nH]3)[nH]2)c1 | – | pIC50 [5]: 6.22
16 | O=c1cc(O)cc(/C=C/c2ccc(O)c(O)c2)o1 [HISPIDIN] | – | pIC50 [6]: 4.40
